Broadly, the pIC50 is the IC50 on a negative log10 scale, so that one unit is a factor of ten. By Papp is commonly meant the rate of passage across a membrane or cell layer, normalised by area and donor concentration. High values mean fast passage, low ones slow passage.

pIC50: −log10 of the molar value.

Our source for the IC50 and Papp values is ChEMBL document CHEMBL3585247, “In Vitro Inhibitory Effects of 8-O-Demethylmaritidine and Undulatine on Acetylcholinesterase and Their Predicted Penetration across the Blood-Brain Barrier” (J Nat Prod, 2015).

The target in one data set is Acetylcholinesterase (Electrophorus electricus, UniProt O42275). Nature of the data set: Inhibition of electric eel AChE using acetylthiocholine as substrate assessed as concentration of 5-thio-2-nitrobenzoic acid ion formed by spectrophotometric/Ellman's method.
Sequence of Acetylcholinesterase (O42275 whole entry): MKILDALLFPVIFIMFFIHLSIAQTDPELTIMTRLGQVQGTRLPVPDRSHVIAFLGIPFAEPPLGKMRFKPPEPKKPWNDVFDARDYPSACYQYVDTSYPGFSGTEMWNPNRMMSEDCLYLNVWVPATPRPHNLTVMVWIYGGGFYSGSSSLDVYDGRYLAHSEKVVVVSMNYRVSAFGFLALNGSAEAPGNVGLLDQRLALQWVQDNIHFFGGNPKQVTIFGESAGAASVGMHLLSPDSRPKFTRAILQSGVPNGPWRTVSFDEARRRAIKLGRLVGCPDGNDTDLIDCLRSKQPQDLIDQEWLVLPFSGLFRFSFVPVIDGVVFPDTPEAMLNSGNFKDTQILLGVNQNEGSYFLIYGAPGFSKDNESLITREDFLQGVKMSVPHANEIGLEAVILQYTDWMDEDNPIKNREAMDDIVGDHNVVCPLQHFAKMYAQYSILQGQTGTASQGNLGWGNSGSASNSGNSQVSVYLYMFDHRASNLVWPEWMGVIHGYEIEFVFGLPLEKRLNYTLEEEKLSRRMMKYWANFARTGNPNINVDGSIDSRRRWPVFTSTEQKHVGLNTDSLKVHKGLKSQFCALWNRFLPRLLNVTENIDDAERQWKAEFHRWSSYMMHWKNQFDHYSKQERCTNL
Data set [1] in a line: Permeability of the compound by PAMPA-BBB assay.

Turning to `COc1c2c(cc3c1[C@@]14CCN(C3)[C@@H]1C[C@@H](OC)[C@@H]1O[C@@H]14)OCO2`, the pIC50 at Acetylcholinesterase is 5.13. In addition, in data set [1], the Papp stood at 18.3 ×10⁻⁶ cm/s.

With `COc1cc2c(cc1O)CN1CC[C@@]23C=CC(O)C[C@H]13` (some centres undefined), the pIC50 at Acetylcholinesterase is 4.24. This compound returned an apparent permeability coefficient (Papp) in data set [1] of 0.7 ×10⁻⁶ cm/s.
